Several values for one entry are separate records, joined by “and”; a condition that tells them apart may be missing. Identical values can stand only once. Like-named read-outs stand apart in the source and are kept apart here.
How the values were obtained:
[1] = target: IGF1R (Homo sapiens, UniProt P08069); assay: Tyrosine kinase inhibition rate (ELISA), IGF1R; type: biochemical; settings: read-out: Inhibtion rate (%) IGF1R
[2] = target: ErbB4 (Homo sapiens, UniProt Q15303); assay: Tyrosine kinase inhibition rate (ELISA), ErbB4; type: biochemical; settings: read-out: Inhibtion rate (%) ErbB4
[3] = target: T1, c-Met kinase (Homo sapiens, UniProt P08581); assay: Inhibitory effect on c-Met kinase activity at molecular level (ELISA); type: biochemical;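 note: recombinant c-Met kinase domain with 5 µM ATP, 1 h at 37 °C, substrate phosphorylation detected by anti-phosphotyrosine PY99 ELISA at 490 nm versus DMSO negative control, ATP-free wells as blank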
T1 construct: c-Met kinase domain recombinant protein diluted with 49 μL of the reaction buffer was added
T1 sequence (P08581 1078-1345 limits assumed): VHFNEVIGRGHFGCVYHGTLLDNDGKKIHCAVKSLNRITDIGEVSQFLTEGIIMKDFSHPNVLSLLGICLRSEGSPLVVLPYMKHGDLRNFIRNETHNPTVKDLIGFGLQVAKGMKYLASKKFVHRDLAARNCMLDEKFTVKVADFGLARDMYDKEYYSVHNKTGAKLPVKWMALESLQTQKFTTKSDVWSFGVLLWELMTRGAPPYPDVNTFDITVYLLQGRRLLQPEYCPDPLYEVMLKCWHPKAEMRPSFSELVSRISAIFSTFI
Experimental: Experiment for Preliminarily Evaluating the Inhibitory Effect on the Activity of Receptor Tyrosine Kinase c-Met at Molecular Level
After discarding the liquid in the wells, the plate was washed with T-PBS (0.1% Tween-20 in PBS) in an amount of 200 μL/well three times, each for 5 minutes. The ELISA plate was dried in an oven at 37° C. for 1-2 hours. 50 μl of adenosine triphosphate (ATP) solution diluted with reaction buffer (50 mM 4-hydroxyethylpiperazine ethanesulfonic acid (HEPES) pH 7.4, 50 mM MgCl2, 0.5 mM MnCl2, 0.2 mM Na3VO4, 1 mM dithiothreitol (DTT)) to a final concentration of 5 μM was added to each well. The compounds were diluted to an appropriate concentration with DMSO (1 μL/well) or a solution containing DMSO in a corresponding concentration (negative control well), and then c-Met kinase domain recombinant protein diluted with 49 μL of the reaction buffer was added therein to initiate the reaction, with two ATP-free control wells for each test. The plate was placed in a shaker (100 rpm) at 37° C. for reacting 1 hour, and washed with T-PBS three times. Primary antibody PY99 diluent was added in an amount of 100 μL/well to allow the reaction in a shaker at 37° C. for 0.5 hour, and then the plate was washed with T-PBS three times. Then the secondary antibody horseradish peroxidase labeled goat anti-mouse IgG diluent was added in an amount of 100 μL/well, and the plate was placed in a shaker at 37° C. for reacting 0.5 hour, and then washed with T-PBS three times. 2 mg/ml of o-phenylenediamine (OPD) coloring solution (diluted with 0.1 M citric acid-sodium citrate buffer (pH=5.4) containing 0.03% H2O2) was then added at 100 μL/well and reacted at 25° C. for 1-10 min with light blocked (ultrasound was required to dissolve OPD, the coloring solution was prepared when needed). The reaction was stopped by adding 2 M of H2SO4 in an amount of 50 μL/well, and a wavelength-adjustable microplate reader SPECTRA MAX 190 was read at 490 nm.
The inhibition rate of the sample was calculated by the following equation:

[4] = system: EBC-1 cells; assay: Inhibition of c-Met-mediated EBC-1 cell proliferation (SRB staining); type: cell-based; settings: Homo sapiens, 72 hours treatment
Experimental: The inhibitory effect of the compounds on the growth of non-small cell cancer EBC-1 cell (a cell line in which Met is continually activated due to the amplification of MET gene, and is a Met-dependent tumor cell line) was measured by sulforhodamine B (SRB) staining assay. A certain amount of EBC-1 cells in their logarithmic growth phase were seeded in 96-well plates at 90 μL per well and cultured overnight, then 10 μL of different concentrations of compounds or solvent control were added thereto, three wells for each concentration. After treated by the compound for 72 hours, the adherent cells were removed of culture medium and fixed with 10% (w/v) trichloroacetic acid (100 μL/well) at 4° C. for 1 hr followed by rinsing with distilled water five times. After drying at room temperature, 100 μL of SRB solution (dissolved in 1% glacial acetic acid at 4 mg/mL) was added to each well to incubate and stain the cells for 15 min at room temperature, then unbound SRB was washed off with 1% glacial acetic acid for five times. After drying at room temperature, 100 μL of 10 mM Tris solution was added to each well. The optical density (OD value) at 515 nm was read on a VERSMax microplate reader. […] The experiment was repeated twice. The IC50 data was calculated as a range based on the test results of concentrations set in the initial screening test.

[5] = target: ALK (Homo sapiens, UniProt Q9UM73); assay: Tyrosine kinase inhibition rate (ELISA), ALK; type: biochemical; settings: read-out: Inhibtion rate (%) ALK
[6] = target: FGFR1 (Homo sapiens, UniProt P11362); assay: Tyrosine kinase inhibition rate (ELISA), FGFR1; type: biochemical
[7] = target: Flt-1 (Homo sapiens, UniProt P17948); assay: Tyrosine kinase inhibition rate (ELISA), Flt-1; type: biochemical; settings: read-out: Inhibtion rate (%) Flt-1
Sequence of Flt-1 (P17948 27-1338, species assumed): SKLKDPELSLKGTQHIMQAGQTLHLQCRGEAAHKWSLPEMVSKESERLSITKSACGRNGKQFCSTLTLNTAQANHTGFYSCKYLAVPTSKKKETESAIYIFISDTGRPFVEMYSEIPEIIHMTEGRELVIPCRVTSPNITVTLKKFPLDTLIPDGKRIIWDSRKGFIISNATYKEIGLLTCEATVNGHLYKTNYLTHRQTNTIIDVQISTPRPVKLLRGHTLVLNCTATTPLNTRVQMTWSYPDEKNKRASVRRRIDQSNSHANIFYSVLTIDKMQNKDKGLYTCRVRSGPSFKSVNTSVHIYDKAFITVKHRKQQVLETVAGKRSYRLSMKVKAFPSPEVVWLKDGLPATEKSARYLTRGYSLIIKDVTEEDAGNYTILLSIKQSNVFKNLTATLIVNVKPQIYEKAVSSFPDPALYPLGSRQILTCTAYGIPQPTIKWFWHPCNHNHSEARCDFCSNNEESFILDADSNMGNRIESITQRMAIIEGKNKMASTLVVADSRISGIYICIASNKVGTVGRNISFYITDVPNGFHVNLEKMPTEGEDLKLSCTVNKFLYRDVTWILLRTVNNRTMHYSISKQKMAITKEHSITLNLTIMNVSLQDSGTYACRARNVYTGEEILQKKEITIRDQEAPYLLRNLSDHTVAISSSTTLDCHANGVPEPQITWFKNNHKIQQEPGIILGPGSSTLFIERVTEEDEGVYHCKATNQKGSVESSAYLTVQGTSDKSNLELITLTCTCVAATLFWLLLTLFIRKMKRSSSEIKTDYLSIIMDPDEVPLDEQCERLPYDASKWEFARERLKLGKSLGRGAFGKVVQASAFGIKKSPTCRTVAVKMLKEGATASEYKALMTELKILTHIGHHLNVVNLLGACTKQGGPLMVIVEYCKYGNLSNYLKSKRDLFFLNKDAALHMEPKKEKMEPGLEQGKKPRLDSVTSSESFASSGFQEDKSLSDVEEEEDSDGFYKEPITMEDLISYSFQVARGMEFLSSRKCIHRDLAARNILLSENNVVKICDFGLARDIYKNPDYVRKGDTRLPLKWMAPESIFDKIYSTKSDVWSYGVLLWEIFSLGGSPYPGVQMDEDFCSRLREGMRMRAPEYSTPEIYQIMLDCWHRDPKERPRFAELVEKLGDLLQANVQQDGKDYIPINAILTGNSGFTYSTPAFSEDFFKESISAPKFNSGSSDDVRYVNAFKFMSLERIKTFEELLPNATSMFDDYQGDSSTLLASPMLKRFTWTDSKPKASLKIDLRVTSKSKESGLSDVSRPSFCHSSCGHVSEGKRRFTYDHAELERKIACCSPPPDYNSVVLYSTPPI

[8] = target: PDGFR-α (Homo sapiens, UniProt P16234); assay: Tyrosine kinase inhibition rate (ELISA), PDGFR-α; type: biochemical; settings: read-out: Inhibtion rate (%) PDGFR-α
[9] = target: PDGFR-β (Homo sapiens, UniProt P09619); assay: Tyrosine kinase inhibition rate (ELISA), PDGFR-β; type: biochemical; settings: read-out: Inhibtion rate (%) PDGFR-β
Sequence of PDGFR-β (P09619 33-1106, species assumed): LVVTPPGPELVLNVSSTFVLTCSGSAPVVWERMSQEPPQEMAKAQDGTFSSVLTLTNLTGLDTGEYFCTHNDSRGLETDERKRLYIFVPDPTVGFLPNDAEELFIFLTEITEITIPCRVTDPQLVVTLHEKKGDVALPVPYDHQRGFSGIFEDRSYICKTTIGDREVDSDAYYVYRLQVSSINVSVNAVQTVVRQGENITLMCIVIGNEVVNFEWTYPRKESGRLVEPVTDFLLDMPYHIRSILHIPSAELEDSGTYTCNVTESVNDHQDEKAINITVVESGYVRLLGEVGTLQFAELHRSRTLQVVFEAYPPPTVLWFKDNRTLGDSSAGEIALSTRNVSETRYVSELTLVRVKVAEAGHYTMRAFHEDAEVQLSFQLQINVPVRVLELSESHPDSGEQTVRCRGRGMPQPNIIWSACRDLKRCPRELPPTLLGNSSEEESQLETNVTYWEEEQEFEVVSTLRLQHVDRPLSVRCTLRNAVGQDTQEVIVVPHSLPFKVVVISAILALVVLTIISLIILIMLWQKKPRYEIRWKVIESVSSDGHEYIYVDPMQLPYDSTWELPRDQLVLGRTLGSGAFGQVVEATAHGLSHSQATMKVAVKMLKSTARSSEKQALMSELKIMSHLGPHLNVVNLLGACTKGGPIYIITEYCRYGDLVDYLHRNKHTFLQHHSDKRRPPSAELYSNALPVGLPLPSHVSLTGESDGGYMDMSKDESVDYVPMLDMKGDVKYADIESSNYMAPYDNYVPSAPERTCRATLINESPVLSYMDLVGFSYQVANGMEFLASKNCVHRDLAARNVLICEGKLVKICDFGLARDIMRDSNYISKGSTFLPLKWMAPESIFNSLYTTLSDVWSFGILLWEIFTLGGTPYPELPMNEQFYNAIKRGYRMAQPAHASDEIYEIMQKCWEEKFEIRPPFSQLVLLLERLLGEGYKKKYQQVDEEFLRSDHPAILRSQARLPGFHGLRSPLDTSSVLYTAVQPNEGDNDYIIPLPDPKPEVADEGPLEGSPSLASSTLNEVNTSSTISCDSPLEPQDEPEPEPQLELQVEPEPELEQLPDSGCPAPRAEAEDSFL

[10] = target: RET (Homo sapiens, UniProt P07949); assay: Tyrosine kinase inhibition rate (ELISA), RET; type: biochemical; settings: read-out: Inhibtion rate (%) RET
Sequence of RET (P07949 29-1114, species assumed): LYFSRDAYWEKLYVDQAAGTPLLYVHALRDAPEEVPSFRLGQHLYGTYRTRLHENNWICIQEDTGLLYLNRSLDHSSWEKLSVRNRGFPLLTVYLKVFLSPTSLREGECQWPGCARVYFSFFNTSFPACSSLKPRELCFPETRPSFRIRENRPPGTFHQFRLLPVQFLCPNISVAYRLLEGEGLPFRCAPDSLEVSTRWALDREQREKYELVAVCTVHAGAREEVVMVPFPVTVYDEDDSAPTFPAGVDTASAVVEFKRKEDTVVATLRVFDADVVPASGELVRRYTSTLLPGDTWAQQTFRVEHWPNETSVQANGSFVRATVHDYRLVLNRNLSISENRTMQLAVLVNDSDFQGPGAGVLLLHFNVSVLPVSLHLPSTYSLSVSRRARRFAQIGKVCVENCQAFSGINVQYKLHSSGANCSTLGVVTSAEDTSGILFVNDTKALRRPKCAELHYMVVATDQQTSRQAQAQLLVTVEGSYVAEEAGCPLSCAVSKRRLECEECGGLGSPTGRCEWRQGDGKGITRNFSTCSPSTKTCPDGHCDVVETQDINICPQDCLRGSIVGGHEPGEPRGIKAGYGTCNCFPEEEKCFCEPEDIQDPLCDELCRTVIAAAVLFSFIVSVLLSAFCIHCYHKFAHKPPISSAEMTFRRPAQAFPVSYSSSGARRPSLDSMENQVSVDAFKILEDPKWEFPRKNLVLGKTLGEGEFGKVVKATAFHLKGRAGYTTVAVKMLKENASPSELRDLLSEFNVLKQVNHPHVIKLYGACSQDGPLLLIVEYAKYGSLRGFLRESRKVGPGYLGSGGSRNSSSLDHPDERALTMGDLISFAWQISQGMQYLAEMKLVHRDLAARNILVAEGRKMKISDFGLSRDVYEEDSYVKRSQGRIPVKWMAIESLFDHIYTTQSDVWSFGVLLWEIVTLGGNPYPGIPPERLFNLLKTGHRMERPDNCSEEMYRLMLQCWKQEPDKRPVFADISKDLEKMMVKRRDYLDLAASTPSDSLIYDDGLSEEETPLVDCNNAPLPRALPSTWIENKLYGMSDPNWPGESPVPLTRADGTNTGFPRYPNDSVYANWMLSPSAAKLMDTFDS

[11] = target: EGFR (Homo sapiens, UniProt P00533); assay: Tyrosine kinase inhibition rate (ELISA), EGFR; type: biochemical; settings: read-out: Inhibtion rate (%) EGFR
[12] = target: c-Src (Homo sapiens, UniProt P12931); assay: Tyrosine kinase inhibition rate (ELISA), c-Src; type: biochemical; settings: read-out: Inhibtion rate (%) c-Src
[13] = target: ABL (Homo sapiens, UniProt P00519); assay: Tyrosine kinase inhibition rate (ELISA), ABL; type: biochemical; settings: read-out: Inhibtion rate (%) ABL
[14] = target: EPH-A2 (Homo sapiens, UniProt P29317); assay: Tyrosine kinase inhibition rate (ELISA), EPH-A2; type: biochemical; settings: read-out: Inhibtion rate (%) EPH-A2
[15] = Pharmacokinetic test in rats; type: in vivo, Sprague-Dawley rats; settings: rat
Experimental: 14 male Sprague-Dawley rats, weigh 200-220 g, were randomly divided into 4 groups with 4/3 in each group. The rats were intragastrically and intravenously administered with compound 7S and 8S respectively. The compounds were dissolved in normal saline containing 5% of DMSO and solubilized with 5% of tween-80 (Tween 80), and the final concentration of the sample was 1 mg/ml.
The rats were fasted 12 h before the test, free drinking water. They were fed 2 h after administration.
gavage administration: 0.25 h, 0.5 h, 1.0 h, 2.0 h, 3.0 h, 4.0 h, 6.0 h, 8.0 h and 24 h after administration;
intravenous administration: 5 min, 0.25 h, 0.5 h, 1.0 h, 2.0 h, 4.0 h, 6.0 h, 8.0 h and 24 h after administration;
0.3 ml venous blood was collected from the retrobulbar venous plexus of rats at the above time point, and placed in a heparinized tube and centrifuged at 11000 rpm for 5 min. The plasma was separated and frozen in a refrigerator at −20° C.
The concentrations of the compounds in rat plasma were measured by LC/MS/MS.
Pharmacokinetic parameters after administration were calculated using the non-compartmental model of the Phoenix 1.3 software (Pharsight, U.S.A.).
Peak concentration Cmax and peak time Tmax were the measured values;
The area under the curve of the drug concentration vs. time AUC0-t value: calculated according to trapezoidal rule; AUC0-∞=AUC0-t+Ct/ke, Ct is the plasma concentration at the last measurable time point, ke is the elimination rate constant;
Elimination half-life t1/2=0.693/ke;
Average retention time MRT=AUMC/AUC.
Clearance rate CL=D/AUC0-∞;
Volume of distribution at steady state Vss=CL×MRT

[16] = system: human lung cancer EBC-1 xenograft tumor; assay: Growth inhibition of subcutaneous xenograft tumor of human lung cancer EBC-1 in nude mice; type: in vivo; settings: for RTV (mean ± SD) / T/C (%) / TV (mm^3, mean ± SD) d21 / Weight (g) d21: d21
Experimental: EBC-1 cells were subcutaneously inoculated into the armpit on the right side of the nude mice in an amount of 5×10^6/mouse respectively to form xenograft tumor, which were then passaged in nude mice for three generations. Tumor tissue that was growing vigorously was cut into about 1.5 mm^3 under sterile conditions, and subcutaneously inoculated into the armpit on the right side of the nude mice, and the diameter of the xenograft tumor was measured with a vernier caliper. The diameter of the subcutaneous xenograft tumor in nude mice was measured with a vernier caliper. […] The diameter of xenograft tumor was measured twice a week and the body weight of mice was weighed during the whole experiment. The tumor volume (TV) was calculated by the following equation: TV=½×a×b^2, wherein a and b represent the length and width, respectively. The relative tumor volume (RTV) was calculated based on the measured results, and the calculation equation thereof is: RTV=Vt/V0, wherein V0 is the tumor volume measured when the mice were divided in different cages and administered (i.e., d0) and Vt is the tumor volume measured each time.

[17] = male, Sprague-Dawley, plasma, po, intragastric (gavage) 10 mg/kg, mean
[18] = male, Sprague-Dawley, plasma, intravenous 5 mg/kg, mean
[19] = 100 mg/kg oral once a day for 21 days

Sequence of IGF1R (P08069 31-1367, species assumed): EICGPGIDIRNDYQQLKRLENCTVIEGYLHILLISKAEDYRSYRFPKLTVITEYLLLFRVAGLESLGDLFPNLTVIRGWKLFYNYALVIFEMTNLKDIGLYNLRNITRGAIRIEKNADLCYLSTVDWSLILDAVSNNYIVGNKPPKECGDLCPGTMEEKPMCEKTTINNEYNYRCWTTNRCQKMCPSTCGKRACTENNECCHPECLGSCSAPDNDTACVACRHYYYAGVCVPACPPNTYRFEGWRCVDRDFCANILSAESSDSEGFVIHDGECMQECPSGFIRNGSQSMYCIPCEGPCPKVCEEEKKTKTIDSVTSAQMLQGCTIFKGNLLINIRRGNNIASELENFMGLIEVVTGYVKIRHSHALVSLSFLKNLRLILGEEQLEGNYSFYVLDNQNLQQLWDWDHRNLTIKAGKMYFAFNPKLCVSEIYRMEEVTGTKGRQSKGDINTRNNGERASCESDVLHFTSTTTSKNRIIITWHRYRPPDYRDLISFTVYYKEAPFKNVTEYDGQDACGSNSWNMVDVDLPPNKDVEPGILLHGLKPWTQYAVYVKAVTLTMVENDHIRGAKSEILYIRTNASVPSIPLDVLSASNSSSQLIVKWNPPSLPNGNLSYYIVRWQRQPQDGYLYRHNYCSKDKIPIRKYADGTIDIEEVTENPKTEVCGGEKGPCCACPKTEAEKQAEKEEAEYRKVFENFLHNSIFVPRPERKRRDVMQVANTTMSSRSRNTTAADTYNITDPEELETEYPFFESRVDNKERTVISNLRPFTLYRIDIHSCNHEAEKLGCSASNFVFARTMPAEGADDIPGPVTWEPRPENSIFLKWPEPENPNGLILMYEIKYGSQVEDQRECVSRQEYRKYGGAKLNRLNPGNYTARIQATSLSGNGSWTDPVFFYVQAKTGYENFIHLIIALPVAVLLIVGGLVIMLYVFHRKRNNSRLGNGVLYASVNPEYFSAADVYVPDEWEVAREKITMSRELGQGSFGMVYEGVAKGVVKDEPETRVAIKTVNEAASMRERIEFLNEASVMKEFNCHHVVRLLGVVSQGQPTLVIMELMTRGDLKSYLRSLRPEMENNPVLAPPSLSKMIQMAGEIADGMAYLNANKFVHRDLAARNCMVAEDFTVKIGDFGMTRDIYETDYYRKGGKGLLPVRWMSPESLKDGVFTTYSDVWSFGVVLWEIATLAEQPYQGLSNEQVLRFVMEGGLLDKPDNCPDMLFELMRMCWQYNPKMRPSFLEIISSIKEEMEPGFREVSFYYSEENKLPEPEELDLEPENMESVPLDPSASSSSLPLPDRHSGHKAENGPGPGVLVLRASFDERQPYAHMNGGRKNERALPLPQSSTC

## Nc1ncnc2c1c(-c1cccc(OCc3ccccc3)c1)cn2[C@H]1C[C@@H](CN2CCC2)C1 [AEW541, reference compound]
[1]
  inhibition at 1 µM: 70.9%

## CN(C)C/C=C/C(=O)Nc1cc2c(Nc3ccc(F)c(Cl)c3)ncnc2cc1O[C@H]1CCOC1 [BIBW2992, reference compound]
[2]
  inhibition at 1 µM: 71.1%

## O=C(Nc1ccc(F)cc1)C1(C(=O)Nc2ccc(Oc3ccnc4cc(OCCN5CCOCC5)ncc34)c(F)c2)CC1 [Compound 7S, N-(3-fluoro-4-((7-(2-morpholinoethoxy)-1,6-naphthyridin-4-yl)oxy)phenyl)-N-(4-fluorophenyl)cyclopropyl-1,1-dicarboxamide]
[3]
  IC50: 1 to 10 nM
[3]; 1 μM, read-out: Inhibtion rate (%) c-Met
  inhibition at 1 µM: 100%
[4]
  IC50: 10 to 100 nM
[5]
  inhibition at 1 µM: 21.7%
[6]; read-out: Inhibtion rate (%) FGFR1
  inhibition at 1 µM: 36.3%
[7]
  inhibition at 1 µM: 70.3%
[8]
  inhibition at 1 µM: 55.6%
[9]
  inhibition at 1 µM: 48.7%
[10]
  inhibition at 1 µM: 78.2%
[11]
  inhibition at 1 µM: 8.6%
[2]
  inhibition at 1 µM: 6.6%
[12]
  inhibition at 1 µM: 55.9%
[13]
  inhibition at 1 µM: 23.3%
[14]
  inhibition at 1 µM: 87.9%
[1]
  inhibition at 1 µM: 18.1%
[15]; male, Sprague-Dawley, plasma, oral, gavage 10 mg/kg vs intravenous 5 mg/kg, read-out: F (absolute bioavailability)
  bioavailability: 51.8%
[15]; [17]
  AUC(0-inf): 16700 ng·h/mL
  AUC(0-t): 16500 ng·h/mL
  Cmax: 5450 ng/mL
  Tmax: 1.75 h
  half-life: 1.66 h
[15]; [18]
  AUC(0-inf): 16000 ng·h/mL
  AUC(0-t): 15900 ng·h/mL
  clearance: 5.23 mL/min/kg
  half-life: 1 h
[15]; male, Sprague-Dawley, plasma, intravenous 5 mg/kg, mean, read-out: Vss
  Vd: 0.346 L/kg
[15]; male, Sprague-Dawley, plasma, iv, 5 mg/kg, intravenous 5 mg/kg, mean, read-out: MRT
  MRT: 1.11 h
[15]; male, Sprague-Dawley, plasma, po, 10 mg/kg, intragastric (gavage) 10 mg/kg, mean, read-out: MRT
  MRT: 2.6 h
[15]; intragastric (gavage) 10 mg/kg, mean, 10 mg/kg
  MRT: 2.653 h
[16]; 10 mg/kg qd/21 po
  TV (mm^3, mean ± SD) d0: 128 ± 34 mm^3
  Weight (g) d0: 18.2 g
  RTV (mean ± SD): 6.09 ± 2.17
  T/C (%): 46.24%
  TV (mm^3, mean ± SD) d21: 764 ± 258 mm^3
  Weight (g) d21: 22.0 g
[16]; [19]
  tumor volume growth inhibition rate GI: 96.5%
  tumor weight inhibition rate: 86.9%
[16]; 100 mg/kg qd/21 po
  TV (mm^3, mean ± SD) d0: 128 ± 39 mm^3
  Weight (g) d0: 17.4 g
  RTV (mean ± SD): 1.26 ± 0.85
  T/C (%): 9.58% and 9.5%
  TV (mm^3, mean ± SD) d21: 181 ± 156 mm^3
  Weight (g) d21: 20.7 g
[16]; within effective dose
  safety in vivo: safe and non-toxic within effective dose

## CCN(CC)CCNC(=O)c1c(C)[nH]c(/C=C2\C(=O)Nc3ccc(F)cc32)c1C [Su11248, reference compound]
[7]
  inhibition at 1 µM: 77.4%
[8]
  inhibition at 1 µM: 54.8%
[9]
  inhibition at 1 µM: 55.6%
[10]
  inhibition at 1 µM: 80.6%

## AZD4547 [reference compound]
[6]; 1 μM
  Inhibtion rate (%) FGFR1: 100%

— US10710996B2, “Pyrido-azaheterecydic compound and preparation method and use thereof” (SHANGHAI INSTITUTE OF MATERIA MEDICA, CHINESE ACADEMY OF …, priority 2015, dated 2020)
